Measurements from PubChem BioAssay AID1918930 (Molecular Pharmacology Branch, DTP, NCI, 2023).
Values joined by “and” are separate entries in the source; they are usually repeats but may differ in a detail not shown here. Equal values may be shown once.

Tested on: 233499-124-R-J3-PDC complex spheroid viability, % test/control
Assay: Anticancer human tumor 233499-124-R-J3-PDC patient-derived colon adenocarcinoma cell line growth inhibition
Settings: for viability, T/C: stronger effect = lower value
Outline: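 Multicellular complex spheroids of tumor cells with human endothelial cells (HUVEC) and mesenchymal stem cells; the LSD1 inhibitor iadademstat was combined with standard-of-care or investigational agents. Top concentration at or near clinical Cmax, half-log dilutions; final DMSO ≤0.25%.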

[1] = curve of first compound, second compound 0.1 µM
[2] = curve of first compound, second compound 0.316 µM
[3] = curve of first compound, second compound 1 µM
[4] = curve of first compound, second compound 3.16 µM
[5] = curve of first compound, second compound 10 µM
[6] = second compound 0.1 µM, first compound 0.00949 µM
[7] = second compound 0.1 µM, first compound 0.03 µM
[8] = second compound 0.1 µM, first compound 0.0949 µM
[9] = second compound 0.1 µM, first compound 0.3 µM
[10] = second compound 0.1 µM, first compound 0.949 µM
[11] = second compound 0.1 µM, first compound 3 µM
[12] = second compound 0.316 µM, first compound 0.00949 µM
[13] = second compound 0.316 µM, first compound 0.03 µM
[14] = second compound 0.316 µM, first compound 0.0949 µM
[15] = second compound 0.316 µM, first compound 0.3 µM
[16] = second compound 0.316 µM, first compound 0.949 µM
[17] = second compound 0.316 µM, first compound 3 µM
[18] = second compound 1 µM, first compound 0.00949 µM
[19] = second compound 1 µM, first compound 0.03 µM
[20] = second compound 1 µM, first compound 0.0949 µM
[21] = second compound 1 µM, first compound 0.3 µM
[22] = second compound 1 µM, first compound 0.949 µM
[23] = second compound 1 µM, first compound 3 µM
[24] = second compound 3.16 µM, first compound 0.00949 µM
[25] = second compound 3.16 µM, first compound 0.03 µM
[26] = second compound 3.16 µM, first compound 0.0949 µM
[27] = second compound 3.16 µM, first compound 0.3 µM
[28] = second compound 3.16 µM, first compound 0.949 µM
[29] = second compound 3.16 µM, first compound 3 µM
[30] = second compound 10 µM, first compound 0.00949 µM
[31] = second compound 10 µM, first compound 0.03 µM
[32] = second compound 10 µM, first compound 0.0949 µM
[33] = second compound 10 µM, first compound 0.3 µM
[34] = second compound 10 µM, first compound 0.949 µM
[35] = second compound 10 µM, first compound 3 µM
[36] = second compound 0.1 µM, first compound 0.0316 µM
[37] = second compound 0.1 µM, first compound 0.1 µM
[38] = second compound 0.1 µM, first compound 0.316 µM
[39] = second compound 0.1 µM, first compound 1 µM
[40] = second compound 0.1 µM, first compound 3.16 µM
[41] = second compound 0.1 µM, first compound 10 µM
[42] = second compound 0.316 µM, first compound 0.0316 µM
[43] = second compound 0.316 µM, first compound 0.1 µM
[44] = second compound 0.316 µM, first compound 0.316 µM
[45] = second compound 0.316 µM, first compound 1 µM
[46] = second compound 0.316 µM, first compound 3.16 µM
[47] = second compound 0.316 µM, first compound 10 µM
[48] = second compound 1 µM, first compound 0.0316 µM
[49] = second compound 1 µM, first compound 0.1 µM
[50] = second compound 1 µM, first compound 0.316 µM
[51] = second compound 1 µM, first compound 1 µM
[52] = second compound 1 µM, first compound 3.16 µM
[53] = second compound 1 µM, first compound 10 µM
[54] = second compound 3.16 µM, first compound 0.0316 µM
[55] = second compound 3.16 µM, first compound 0.1 µM
[56] = second compound 3.16 µM, first compound 0.316 µM
[57] = second compound 3.16 µM, first compound 1 µM
[58] = second compound 3.16 µM, first compound 3.16 µM
[59] = second compound 3.16 µM, first compound 10 µM
[60] = second compound 10 µM, first compound 0.0316 µM
[61] = second compound 10 µM, first compound 0.1 µM
[62] = second compound 10 µM, first compound 0.316 µM
[63] = second compound 10 µM, first compound 1 µM
[64] = second compound 10 µM, first compound 3.16 µM
[65] = second compound 10 µM, first compound 10 µM
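Further: spheroids exposed to agents for one week before readout.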

CCN(c1cc(-c2ccc(CN3CCOCC3)cc2)cc(C(=O)NCc2c(C)cc(C)[nH]c2=O)c1C)C1CCOCC1 + NC1CC1c1ccc(-c2cccc(O)c2)cc1
IC50 [1]: > 3000 nM
IC50 [2]: > 3000 nM
IC50 [3]: 2500 nM
IC50 [4]: > 3000 nM
IC50 [5]: 1860 nM
viability, T/C [6]: 97.3%
viability, T/C [7]: 99.1%
viability, T/C [8]: 111%
viability, T/C [9]: 115%
viability, T/C [10]: 98.4%
viability, T/C [11]: 51.8%
viability, T/C [12]: 117%
viability, T/C [13]: 124%
viability, T/C [14]: 112%
viability, T/C [15]: 129%
viability, T/C [16]: 98.5%
viability, T/C [17]: 50.8%
viability, T/C [18]: 97%
viability, T/C [19]: 99.7%
viability, T/C [20]: 93.7%
viability, T/C [21]: 107%
viability, T/C [22]: 85%
viability, T/C [23]: 43.4%
viability, T/C [24]: 99%
viability, T/C [25]: 105%
viability, T/C [26]: 90.5%
viability, T/C [27]: 80.7%
viability, T/C [28]: 77.2%
viability, T/C [29]: 53.9%
viability, T/C [30]: 79.3%
viability, T/C [31]: 88.6%
viability, T/C [32]: 84.7%
viability, T/C [33]: 93.2%
viability, T/C [34]: 65.8%
viability, T/C [35]: 38.8%

Nc1ccccc1NC(=O)c1ccc(CNC(=O)OCc2cccnc2)cc1
viability, T/C (compound 0.00949 µM): 90.9% and 83.5%
viability, T/C (compound 0.03 µM): 101% and 93.5%
viability, T/C (compound 0.0949 µM): 84.8% and 81%
viability, T/C (compound 0.3 µM): 90% and 63.2%
viability, T/C (compound 0.949 µM): 28.9% and 12.3%
viability, T/C (compound 3 µM): 4.68% and 3.17%
IC50 (curve of compound): 637 nM and 401 nM

O=C(C=Cc1cccc(S(=O)(=O)Nc2ccccc2)c1)NO
viability, T/C (compound 0.00949 µM): 93.1% and 104%
viability, T/C (compound 0.03 µM): 116% and 98.3%
viability, T/C (compound 0.0949 µM): 128% and 104%
viability, T/C (compound 0.3 µM): 141% and 98.9%
viability, T/C (compound 0.949 µM): 26.7% and 9.27%
viability, T/C (compound 3 µM): 96.4% and 90.1%
IC50 (curve of compound): 3000 nM and > 3000 nM

CC1(C)CCC(CN2CCN(c3ccc(C(=O)NS(=O)(=O)c4ccc(NCC5CCOCC5)c([N+](=O)[O-])c4)c(Oc4cnc5[nH]ccc5c4)c3)CC2)=C(c2ccc(Cl)cc2)C1 + NC1CC1c1ccc(-c2cccc(O)c2)cc1
IC50 [1]: 2680 nM
IC50 [2]: 2450 nM
IC50 [3]: 3180 nM
IC50 [4]: 2810 nM
IC50 [5]: 2270 nM
viability, T/C [36]: 84.1%
viability, T/C [37]: 109%
viability, T/C [38]: 113%
viability, T/C [39]: 107%
viability, T/C [40]: 41.1%
viability, T/C [41]: 0.86%
viability, T/C [42]: 114%
viability, T/C [43]: 102%
viability, T/C [44]: 100%
viability, T/C [45]: 111%
viability, T/C [46]: 33.9%
viability, T/C [47]: 0.83%
viability, T/C [48]: 88.7%
viability, T/C [49]: 92%
viability, T/C [50]: 97.8%
viability, T/C [51]: 102%
viability, T/C [52]: 50.2%
viability, T/C [53]: 0.7%
viability, T/C [54]: 100%
viability, T/C [55]: 97.1%
viability, T/C [56]: 91.4%
viability, T/C [57]: 99.3%
viability, T/C [58]: 44.6%
viability, T/C [59]: 0.57%
viability, T/C [60]: 76.7%
viability, T/C [61]: 83.9%
viability, T/C [62]: 72.9%
viability, T/C [63]: 81.1%
viability, T/C [64]: 38.5%
viability, T/C [65]: 0.43%

Nc1ccccc1NC(=O)c1ccc(CNC(=O)OCc2cccnc2)cc1 + NC1CCC(NC2CC2c2ccccc2)CC1
IC50 [1]: 476 nM
IC50 [2]: 579 nM
IC50 [3]: 523 nM
IC50 [4]: 525 nM
IC50 [5]: 463 nM
viability, T/C [6]: 112%
viability, T/C [7]: 93.4%
viability, T/C [8]: 106%
viability, T/C [9]: 65.8%
viability, T/C [10]: 24%
viability, T/C [11]: 2.31%
viability, T/C [12]: 92.2%
viability, T/C [13]: 91.8%
viability, T/C [14]: 101%
viability, T/C [15]: 91.2%
viability, T/C [16]: 19.1%
viability, T/C [17]: 5.83%
viability, T/C [18]: 81.9%
viability, T/C [19]: 99.9%
viability, T/C [20]: 92%
viability, T/C [21]: 88.4%
viability, T/C [22]: 8.94%
viability, T/C [23]: 4.76%
viability, T/C [24]: 78.8%
viability, T/C [25]: 89.5%
viability, T/C [26]: 76.7%
viability, T/C [27]: 82.1%
viability, T/C [28]: 16.5%
viability, T/C [29]: 4.56%
viability, T/C [30]: 74.8%
viability, T/C [31]: 92.3%
viability, T/C [32]: 75.2%
viability, T/C [33]: 73.4%
viability, T/C [34]: 11.5%
viability, T/C [35]: 3.56%

CC1COCCN1c1cc(C2(S(C)(=N)=O)CC2)nc(-c2ccnc3[nH]ccc23)n1 (centres undefined) + NC1CCC(NC2CC2c2ccccc2)CC1
IC50 [1]: > 10000 nM
IC50 [2]: > 10000 nM
IC50 [3]: > 10000 nM
IC50 [4]: > 10000 nM
IC50 [5]: 1390 nM
viability, T/C [36]: 105%
viability, T/C [37]: 91.5%
viability, T/C [38]: 87.8%
viability, T/C [39]: 82.8%
viability, T/C [40]: 62.6%
viability, T/C [41]: 59.9%
viability, T/C [42]: 102%
viability, T/C [43]: 98.8%
viability, T/C [44]: 95.8%
viability, T/C [45]: 100%
viability, T/C [46]: 90%
viability, T/C [47]: 58.1%
viability, T/C [48]: 98.8%
viability, T/C [49]: 78.5%
viability, T/C [50]: 84.3%
viability, T/C [51]: 66.3%
viability, T/C [52]: 63.4%
viability, T/C [53]: 65%
viability, T/C [54]: 79.5%
viability, T/C [55]: 92.4%
viability, T/C [56]: 80%
viability, T/C [57]: 67.8%
viability, T/C [58]: 61.7%
viability, T/C [59]: 51.6%
viability, T/C [60]: 81.4%
viability, T/C [61]: 71.3%
viability, T/C [62]: 80.9%
viability, T/C [63]: 52.5%
viability, T/C [64]: 43.9%
viability, T/C [65]: 43.3%
